In patent US20120028917A1, “Use Of N-(4-((3-(2-Amino-4-Pyrimidinyl)-2-Pyridinyl)Oxy)Phenyl)-4-(4-Methyl-2-Thienyl)-1-Phthalazinamine In The Treatment Of Antimitotic Agent Resistant Cancer” (Amgen Inc., priority 2009, published 2012):
pEC50: −log10 of the molar value.

Tests used:
Test in all cases: Antiproliferative assay (ArrayScan VTi)
Type in all cases: cell-based
769P = conditions: Homo sapiens; 769P* (Kidney), paclitaxel-resistant; 24 h treatment, then 48 h without compound
Protocol: (§1) Tumor cells were seeded in a Packard View 96-well plate in 100 μL of appropriate complete media at a density of 3000 or 5000 cells/well depending on the cell line growth kinetics (broadly defined as slow vs. fast). All dilutions were performed using Biomek FX workstation. The next day cells were treated with AMG 900 (11-point dose range 0.156 to 0.0003 μM) with a final DMSO concentration of 0.12% in media. After 24 hours, the media containing compound was removed and the cells were washed with complete media. The cells were then incubated in 100 μL of fresh complete media (without compound) for 48 hours. After 48 hours, the cells were fixed by adding 100 μL of fixation buffer to 100 μL of complete media. The cells were incubated at room temperature for 10 minutes. The fixation buffer was aspirated and the cells were then permeabilized in 100 μL wash buffer for 30 minutes at room temperature followed by the addition of 100 μL of DNA stain buffer and incubated at room temperature for 30 minutes in the dark. Next, the cells were washed with 100 μL of wash buffer and stored in 100 μL 1×PBS at 4 degrees Celsius until analysis. Cellular data was attained by scanning the 96-well plates on an ArrayScan VTi imaging system (Cellomics). Quantification of individual cell nuclear area and intensity was performed based on Hoechst 33342 DNA dye fluorescence. A threshold on the nuclear area based on the DMSO-treated control well was set to quantify the number of normal size nuclei from nuclear debris and polyploidy cells. This threshold value was applied to enumerate the number of normal nuclei in six image fields/well using a magnification of 10×. The dose-concentration curves and EC50 values were calculated using a 4-parameter equation.

A498 = conditions: Homo sapiens; A498 (Kidney); 24 h treatment, then 48 h without compound
Protocol: as §1

A549 = conditions: Homo sapiens; A549 (Lung); 24 h treatment, then 48 h without compound
Protocol: as §1

BT549 = conditions: Homo sapiens, BT-549; BT549 (Breast); 24 h treatment, then 48 h without compound
Protocol: as §1

CAKI-1 = conditions: Homo sapiens; CAKI-1 (Kidney); 24 h treatment, then 48 h without compound
Protocol: as §1

CAL51 = conditions: Homo sapiens, CAL-51; CAL51 (Breast); 24 h treatment, then 48 h without compound
Protocol: as §1

DU145 = conditions: Homo sapiens, DU-145; DU145 (Prostate); 24 h treatment, then 48 h without compound
Protocol: as §1

HCT 116_JH_p21+/+ = conditions: Homo sapiens; HCT 116_JH_p21+/+ (Colon); 24 h treatment, then 48 h without compound
Protocol: as §1

HCT 116_JH_p21−/− = conditions: Homo sapiens; HCT 116_JH_p21−/− (Colon); 24 h treatment, then 48 h without compound
Protocol: as §1

HCT15 = conditions: Homo sapiens, HCT-15; HCT15* (Colon), paclitaxel-resistant; 24 h treatment, then 48 h without compound
Protocol: as §1

HOP-62 = conditions: Homo sapiens; HOP-62 (Lung); 24 h treatment, then 48 h without compound
Protocol: as §1

HOP-92 = conditions: Homo sapiens; HOP-92 (Lung); 24 h treatment, then 48 h without compound
Protocol: as §1

HT29 = conditions: Homo sapiens, HT-29; HT29 (Colon); 24 h treatment, then 48 h without compound
Protocol: as §1

MCF7-p53+ = conditions: Homo sapiens; MCF7-p53+ (Breast); 24 h treatment, then 48 h without compound
Protocol: as §1

MCF7-p53− = conditions: Homo sapiens; MCF7-p53− (Breast); 24 h treatment, then 48 h without compound
Protocol: as §1

MDA-MB-231 = conditions: Homo sapiens; MDA-MB-231 (Breast); 24 h treatment, then 48 h without compound
Protocol: as §1

MES-SA Dx5 = conditions: Homo sapiens; MES-SA Dx5* (Uterine), paclitaxel-resistant; 24 h treatment, then 48 h without compound
Protocol: as §1

NCI-H460 = conditions: Homo sapiens; NCI-H460 (Lung); 24 h treatment, then 48 h without compound
Protocol: as §1

PC3 = conditions: Homo sapiens, PC-3; PC3 (Prostate); 24 h treatment, then 48 h without compound
Protocol: as §1

SK-HEP-1 = conditions: Homo sapiens, SK-HEP1; SK-HEP-1 (Liver); 24 h treatment, then 48 h without compound
Protocol: as §1

SK-OV-3 = conditions: Homo sapiens; SK-OV-3 (Ovarian); 24 h treatment, then 48 h without compound
Protocol: as §1

SNU449 = conditions: Homo sapiens, SNU-449; SNU449* (Liver), paclitaxel-resistant; 24 h treatment, then 48 h without compound
Protocol: as §1

SW480 = conditions: Homo sapiens; SW480 (Colon); 24 h treatment, then 48 h without compound
Protocol: as §1

SW620 = conditions: Homo sapiens, SW-620; SW620 (Colon); 24 h treatment, then 48 h without compound
Protocol: as §1

T47D = conditions: Homo sapiens; T47D (Breast); 24 h treatment, then 48 h without compound
Protocol: as §1

pEC50 (A549): 9.00 | pEC50 (BT549): 8.40 | pEC50 (DU145): 8.70 | pEC50 (HCT 116_JH_p21+/+): 9.00 | pEC50 (HCT 116_JH_p21−/−): 9.00 | pEC50 (HCT15): 8.70 | pEC50 (HT29): 8.30 | pEC50 (MCF7-p53+): 9.00 | pEC50 (MCF7-p53−): 8.52 | pEC50 (MDA-MB-231): 8.70 | pEC50 (NCI-H460): 9.00 | pEC50 (PC3): 8.70 | pEC50 (SK-HEP-1): 9.00 | pEC50 (SK-OV-3): 8.70 | pEC50 (SNU449): 8.70 | pEC50 (SW480): 8.70 | pEC50 (SW620): 8.70 | pEC50 (T47D): 8.30
Structure (SMILES): Cc1csc(-c2nnc(Nc3ccc(Oc4ncccc4-c4ccnc(N)n4)cc3)c3ccccc23)c1 [AMG 900, N-(4-((3-(2-amino-4-pyrimidinyl)-2-pyridinyl)oxy)phenyl)-4-(4-methyl-2-thienyl)-1-phthalazinamine]
pEC50 (769P): 8.70 | pEC50 (A498): 9.00 | pEC50 (CAKI-1): 9.00 | pEC50 (CAL51): 8.70 | pEC50 (HOP-62): 8.70 | pEC50 (HOP-92): 8.70 | pEC50 (MES-SA Dx5): 9.00
